According to article PMC11240139, “Exploring the antitumor potential of novel quinoline derivatives via tubulin polymerization inhibition in breast cancer; design, synthesis and molecular docking” (RSC Advances, 2024):

Legend:
Format in all cases: cell-based
CCRF-CEM (leukemia) = assay: NCI-60 SRB cytotoxicity screen; conditions: Homo sapiens, single dose 10 μM, read-out: growth inhibition (GI%)
K-562 (leukemia) = assay: NCI-60 SRB cytotoxicity screen; conditions: Homo sapiens; K-652 [sic], single dose 10 μM; read-out: growth inhibition (GI%)
MOLT-4 (leukemia) = assay: NCI-60 SRB cytotoxicity screen; conditions: Homo sapiens; MOLT-4, single dose 10 μM; read-out: growth inhibition (GI%)
[1] = test system: NCI-H226 (non-small cell lung cancer); assay: NCI-60 SRB cytotoxicity screen; conditions: Homo sapiens; NCI-H226, single dose 10 μM; read-out: growth inhibition (GI%)
[2] = test system: NCI-H23 (non-small cell lung cancer); assay: NCI-60 SRB cytotoxicity screen; conditions: Homo sapiens; NCI-H23, single dose 10 μM; read-out: growth inhibition (GI%)
[3] = test system: NCI-H322M (non-small cell lung cancer); assay: NCI-60 SRB cytotoxicity screen; conditions: Homo sapiens, single dose 10 μM, read-out: growth inhibition (GI%)
COLO 205 (colon cancer) = assay: NCI-60 SRB cytotoxicity screen; conditions: Homo sapiens; COLO 205, single dose 10 μM; read-out: growth inhibition (GI%)
HCT-116 (colon cancer) = assay: NCI-60 SRB cytotoxicity screen; conditions: Homo sapiens; HCT-116, single dose 10 μM; read-out: growth inhibition (GI%)
HT29 (colon cancer) = assay: NCI-60 SRB cytotoxicity screen; conditions: Homo sapiens, HT-29; HT29, single dose 10 μM; read-out: growth inhibition (GI%)
SF-268 (CNS cancer) = assay: NCI-60 SRB cytotoxicity screen; conditions: Homo sapiens; SF-268, single dose 10 μM; read-out: growth inhibition (GI%)
SF-539 (CNS cancer) = assay: NCI-60 SRB cytotoxicity screen; conditions: Homo sapiens; SF-539, single dose 10 μM; read-out: growth inhibition (GI%)
SNB-19 (CNS cancer) = assay: NCI-60 SRB cytotoxicity screen; conditions: Homo sapiens; SNB-19, single dose 10 μM; read-out: growth inhibition (GI%)
SNB-75 (CNS cancer) = assay: NCI-60 SRB cytotoxicity screen; conditions: Homo sapiens, SNB-75, SNB-75, single dose 10 μM; read-out: growth inhibition (GI%)
U251 (CNS cancer) = assay: NCI-60 SRB cytotoxicity screen; conditions: Homo sapiens, U-251; U251, single dose 10 μM; read-out: growth inhibition (GI%)
LOX IMVI (melanoma) = assay: NCI-60 SRB cytotoxicity screen; conditions: Homo sapiens, single dose 10 μM, read-out: growth inhibition (GI%)
M14 (melanoma) = assay: NCI-60 SRB cytotoxicity screen; conditions: Homo sapiens; M14, single dose 10 μM; read-out: growth inhibition (GI%)
SK-MEL-28 (melanoma) = assay: NCI-60 SRB cytotoxicity screen; conditions: Homo sapiens; SK-MEL-28, single dose 10 μM; read-out: growth inhibition (GI%)
IGROV1 (ovarian cancer) = assay: NCI-60 SRB cytotoxicity screen; conditions: Homo sapiens, IGROV-1; IGROV1, single dose 10 μM; read-out: growth inhibition (GI%)
OVCAR-3 (ovarian cancer) = assay: NCI-60 SRB cytotoxicity screen; conditions: Homo sapiens; OVCAR-3, single dose 10 μM; read-out: growth inhibition (GI%)
OVCAR-5 (ovarian cancer) = assay: NCI-60 SRB cytotoxicity screen; conditions: Homo sapiens; OVCAR-5, single dose 10 μM; read-out: growth inhibition (GI%)
OVCAR-8 (ovarian cancer) = assay: NCI-60 SRB cytotoxicity screen; conditions: Homo sapiens; OVCAR-8, single dose 10 μM; read-out: growth inhibition (GI%)
[4] = test system: NCI/ADR-RES (ovarian cancer); assay: NCI-60 SRB cytotoxicity screen; conditions: Homo sapiens, single dose 10 μM, read-out: growth inhibition (GI%)
A498 (renal cancer) = assay: NCI-60 SRB cytotoxicity screen; conditions: Homo sapiens; A498, single dose 10 μM; read-out: growth inhibition (GI%)
SN12C (renal cancer) = assay: NCI-60 SRB cytotoxicity screen; conditions: Homo sapiens, single dose 10 μM, read-out: growth inhibition (GI%)
UO-31 (renal cancer) = assay: NCI-60 SRB cytotoxicity screen; conditions: Homo sapiens; UO-31, single dose 10 μM; read-out: growth inhibition (GI%)
DU-145 (prostate cancer) = assay: NCI-60 SRB cytotoxicity screen; conditions: Homo sapiens; DU-145, single dose 10 μM; read-out: growth inhibition (GI%)
[5] = test system: MDA-MB-231/ATCC (breast cancer); assay: NCI-60 SRB cytotoxicity screen; conditions: Homo sapiens, MDA-MB-231, read-out: growth inhibition (GI%);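 note: growth inhibition in percent at a single 10 µM dose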
HS 578T (breast cancer) = assay: NCI-60 SRB cytotoxicity screen; conditions: Homo sapiens, single dose 10 μM, read-out: growth inhibition (GI%)
T-47D (breast cancer) = assay: NCI-60 SRB cytotoxicity screen; conditions: Homo sapiens, T47D, single dose 10 μM, read-out: growth inhibition (GI%)
[6] = test system: MDA-MB-468 (breast cancer); assay: NCI-60 SRB cytotoxicity screen; conditions: Homo sapiens; MDA-MB-468, single dose 10 μM; read-out: growth inhibition (GI%)
In short: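 NCI-60 single-dose (10^−5 M) screen in MDA-MB-468 with SRB protein-stain read-out after 48 h exposure; cells TCA-fixed and absorbance read at 540 nm. Reported as GI%, with compounds meeting NCI activity criteria then run at five doses (0.01–100 μM).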

[7] = test system: 60 cancer cell lines (NCI); assay: NCI-60 single-dose screen, overall verdict over the panel; conditions: single dose 10 μM, whole panel
In short: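 Compounds were tested at a single 10^−5 M dose across the NCI 60 cell line panel, with cells preincubated 24 h before treatment. Viability was measured by TCA fixation and sulforhodamine B staining, absorbance 540 nm. % cytotoxicity = [1 − (sample/negative control absorbance)] × 100.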

Compound: CCc1cccc2cc(C3C=C(c4ccc(OC)cc4)NC(=S)N3)c(Cl)nc12 (stereo not shown) [Compound 6a, 4-(2-Chloro-8-ethylquinolin-3-yl)-6-(4-methoxyphenyl)-3,4-dihydropyrimidine-2(1H)-thione]
- inhibition at 10 µM (CCRF-CEM (leukemia)): < 10%
- inhibition at 10 µM (K-562 (leukemia)): < 10%
- inhibition at 10 µM (MOLT-4 (leukemia)): < 10%
- inhibition at 10 µM [1]: < 10%
- inhibition at 10 µM [2]: < 10%
- inhibition at 10 µM [3]: < 10%
- inhibition at 10 µM (COLO 205 (colon cancer)): < 10%
- inhibition at 10 µM (HCT-116 (colon cancer)): < 10%
- inhibition at 10 µM (HT29 (colon cancer)): < 10%
- inhibition at 10 µM (SF-268 (CNS cancer)): < 10%
- inhibition at 10 µM (SF-539 (CNS cancer)): < 10%
- inhibition at 10 µM (SNB-19 (CNS cancer)): < 10%
- inhibition at 10 µM (SNB-75 (CNS cancer)): 14.9%
- inhibition at 10 µM (U251 (CNS cancer)): < 10%
- inhibition at 10 µM (LOX IMVI (melanoma)): < 10%
- inhibition at 10 µM (M14 (melanoma)): 13.2%
- inhibition at 10 µM (SK-MEL-28 (melanoma)): < 10%
- inhibition at 10 µM (IGROV1 (ovarian cancer)): < 10%
- inhibition at 10 µM (OVCAR-3 (ovarian cancer)): < 10%
- inhibition at 10 µM (OVCAR-5 (ovarian cancer)): < 10%
- inhibition at 10 µM (OVCAR-8 (ovarian cancer)): < 10%
- inhibition at 10 µM [4]: < 10%
- inhibition at 10 µM (A498 (renal cancer)): < 10%
- inhibition at 10 µM (SN12C (renal cancer)): < 10%
- inhibition at 10 µM (UO-31 (renal cancer)): 18.6%
- inhibition at 10 µM (DU-145 (prostate cancer)): < 10%
- inhibition at 10 µM [5]: < 10%
- inhibition at 10 µM (HS 578T (breast cancer)): < 10%
- inhibition at 10 µM (T-47D (breast cancer)): < 10%
- inhibition at 10 µM [6]: < 10%
- cytotoxic activity over the cell lines (in words) [7]: limited cytotoxic activity
